Laboratory results taken from patent US7417156B2, “Orally active, antimalarial, anticancer, artemisinin-derived trioxane dimers” (Johns Hopkins University, priority 2002, dated 2008).

Assays:
[1] = test system: BT-549; assay: NCI 60 cell line panel screen (SRB); type: cell-based, human
[2] = test system: RXF 393; assay: NCI 60 cell line panel screen (SRB); type: cell-based, human
[3] = test system: SF-268; assay: NCI 60 cell line panel screen (SRB); type: cell-based, human
[4] = test system: chloroquine-sensitive P. falciparum (NF54); assay: Antimalarial activity in vitro, [3H]hypoxanthine incorporation; type: cell-based; settings: Table I; NF54 strain; read-out: IC50
[5] = test system: MCF7; assay: NCI 60 cell line panel screen (SRB); type: cell-based, human
[6] = test system: NCI/ADR-RES; assay: NCI 60 cell line panel screen (SRB); type: cell-based, human
[7] = test system: CCRF-CEM; assay: NCI 60 cell line panel screen (SRB); type: cell-based, human
[8] = test system: UACC-257; assay: NCI 60 cell line panel screen (SRB); type: cell-based, human
[9] = test system: SF-539; assay: NCI 60 cell line panel screen (SRB); type: cell-based, human
[10] = test system: MDA-MB231/ATCC; assay: NCI 60 cell line panel screen (SRB); type: cell-based, human
[11] = test system: K-562; assay: NCI 60 cell line panel screen (SRB); type: cell-based, human
[12] = test system: HOP-62; assay: NCI 60 cell line panel screen (SRB); type: cell-based, human
[13] = test system: HL-60(TB); assay: NCI 60 cell line panel screen (SRB); type: cell-based, human
[14] = test system: OVCAR-8; assay: NCI 60 cell line panel screen (SRB); type: cell-based, human
[15] = test system: MOLT-4
Procedure: Growth Inhibition. […] The screening assay is performed on 96-well microtitre plates. Relatively high initial inoculation densities are used, in order to permit measurement of “time-zero” values and to enhance the screen's ability to detect and provide some differentiation between growth inhibition and cytotoxic response parameters. […] The inoculated microtitre plates are pre-incubated for 24 hours at 37° C. prior to drug additions. The five drug dilutions tested routinely range from 10^−4 to 10^−8 molar. Higher or lower concentration ranges may be selected on a non-routine basis if appropriate solubility and/or prior biological information or other screening data so dictate. Duplicate wells are prepared for all concentrations, (concentration is often denoted by placing brackets around a number); “time-zero” and “no drug” controls are also provided for each test. The minimum amount of compound required for a one-time evaluation in the routine screen can be calculated from the knowledge that each test requires a total of approximately 40 ml (0.04 liter) of cell culture medium containing the highest desired drug concentration. […] After a 48 hour incubation (37° C.) with the test compound, the cells are fixed in situ to the bottoms of the microtitre wells by addition of 50 μl of either 50% trichloroacetic acid (for adherent cell lines) or 80% trichloroacetic acid (for settled cell suspension lines), followed by incubation for 60 minutes at 4° C. The cellular protein in each well is assayed using a sulforhodamine B (SRB) stain procedure. Briefly, after discarding the supernatants, the microtitre plates are washed 5 times with deionized water and air-dried. […] Unbound SRB is removed by washing 5 times with 1% acetic acid. […] SRB is a bright pink anionic dye which, in dilute acetic acid, binds electrostatically to the basic amino acids of TCA-fixed cells. Cryopreserved master stocks of all the lines are maintained, and cultures used for screening are replaced from the master stock after no more than twenty passages in the screening laboratory. The cell line panel consists of 60 lines, organized into nine, disease-related subpanels including leukemia, non-small-cell lung cancer, colon, CNS, melanoma, ovarian, renal, prostate and breast cancers.
At this value the increase from time tzero, in the number or mass of cells in the test well is only 50% as much as the corresponding increase in the control well during this period of the experiment, see Table III. A drug effect of this intensity is interpreted as primary growth inhibition.
At this value the number or mass of cells in the well at the end of the experiment equals the number or mass of cells in the well at time tzero, see Table IV. A drug effect of this intensity is regarded as cytostasis.
At this value, the number or mass of cells in the test well at the end of the experiment is half that at time tzero, see Table V. This is interpreted as cytotoxicity.
Dose response curves, shown in the above mentioned Figures, are obtained by exposing various cancer cell lines to compounds having a known concentration ([log10M]), as discussed in detail above, and then plotting the percentage growth of each cell line for each concentration. […] Percentage growth is determined by dividing the number or mass of cells in the test well by the number or mass of cells in a control well. […] As discussed previously, the five drug dilutions routinely tested range from 10^−4 to […].

[16] = test system: SK-OV-3; assay: NCI 60 cell line panel screen (SRB); type: cell-based, human
[17] = test system: EKVX; assay: NCI 60 cell line panel screen (SRB); type: cell-based, human
[18] = test system: HT29; assay: NCI 60 cell line panel screen (SRB); type: cell-based, human

CC1CCC2C(C)C(CC(COC(=O)CCC(=O)O)CC3OC4OC5(C)CCC6C(C)CCC(C3C)C46OO5)OC3OC4(C)CCC1C32OO4 (centres unmarked) [Compound 8a, bis-trioxane primary succinate monoester]
Log10LC50 ([1]; BT-549 (Breast Cancer), LC50: PG=−50): >−4.30 log10M
Log10TGI50 ([1]; BT-549 (Breast Cancer), TGI: PG=0): −7.39 log10M
Log10GI50 ([1]; Breast Cancer, BT-549): −7.91
Log10LC50 ([2]; RXF 393 (Renal Cancer), LC50: PG=−50): >−4.30 log10M
Log10TGI50 ([2]; RXF 393 (Renal Cancer), TGI: PG=0): −6.77 log10M
Log10GI50 ([2]; Renal Cancer, RXF 393): <−8.30
Log10GI50 ([3]; CNS Cancer, SF-268): −7.11
Log10LC50 ([3]; SF-268 (CNS Cancer), LC50: PG=−50): >−4.30 log10M
Log10TGI50 ([3]; SF-268 (CNS Cancer), TGI: PG=0): >−4.30 log10M
IC50 [4]: 2 nM
Log10GI50 ([5]; Breast Cancer, MCF7): <−8.30
Log10LC50 ([5]; MCF7 (Breast Cancer), LC50: PG=−50): >−4.30 log10M
Log10TGI50 ([5]; MCF7 (Breast Cancer), TGI: PG=0): >−4.30 log10M
Log10GI50 ([6]; Breast Cancer, NCI/ADR-RES): −5.64
Log10LC50 ([6]; NCI/ADR-RES (Breast Cancer), LC50: PG=−50): >−4.30 log10M
Log10TGI50 ([6]; NCI/ADR-RES (Breast Cancer), TGI: PG=0): >−4.30 log10M
Log10LC50 ([7]; CCRF-CEM (Leukemia), LC50: PG=−50): >−4.30 log10M
Log10TGI50 ([7]; CCRF-CEM (Leukemia), TGI: PG=0): >−4.30 log10M
Log10GI50 ([7]; Leukemia, CCRF-CEM): <−8.30
Log10GI50 ([8]; Melanoma, UACC-257): −5.02
Log10LC50 ([8]; UACC-257 (Melanoma), LC50: PG=−50): >−4.30 log10M
Log10TGI50 ([8]; UACC-257 (Melanoma), TGI: PG=0): >−4.30 log10M
Log10GI50 ([9]; CNS Cancer, SF-539): −5.27
Log10LC50 ([9]; SF-539 (CNS Cancer), LC50: PG=−50): >−4.30 log10M
Log10TGI50 ([9]; SF-539 (CNS Cancer), TGI: PG=0): >−4.30 log10M
Log10GI50 ([10]; Breast Cancer, MDA-MB231/ATCC): −7.19
Log10LC50 ([10]; MDA-MB231/ATCC (Breast Cancer), LC50: PG=−50): >−4.30 log10M
Log10TGI50 ([10]; MDA-MB231/ATCC (Breast Cancer), TGI: PG=0): −6.35 log10M
Log10LC50 ([11]; K-562 (Leukemia), LC50: PG=−50): >−4.30 log10M
Log10TGI50 ([11]; K-562 (Leukemia), TGI: PG=0): >−4.30 log10M
Log10GI50 ([11]; Leukemia, K-562): <−8.30
Log10LC50 ([12]; HOP-62 (Non-Small Cell Lung Cancer), LC50: PG=−50): >−4.30 log10M
Log10TGI50 ([12]; HOP-62 (Non-Small Cell Lung Cancer), TGI: PG=0): >−4.30 log10M
Log10GI50 ([12]; Non-Small Cell Lung Cancer, HOP-62): −6.34
Log10LC50 ([13]; HL-60(TB) (Leukemia), LC50: PG=−50): >−4.30 log10M
Log10TGI50 ([13]; HL-60(TB) (Leukemia), TGI: PG=0): −7.61 log10M
Log10GI50 ([13]; Leukemia, HL-60(TB)): <−8.30
Log10LC50 ([14]; OVCAR-8 (Ovarian Cancer), LC50: PG=−50): >−4.30 log10M
Log10TGI50 ([14]; OVCAR-8 (Ovarian Cancer), TGI: PG=0): >−4.30 log10M
Log10GI50 ([14]; Ovarian Cancer, OVCAR-8): >−4.30
concentration for cytotoxicity (percentage growth −50) [15]: greater than 10^−4 M
Log10GI50 ([15]; Leukemia, MOLT-4): −8.18
Log10LC50 ([15]; MOLT-4 (Leukemia), LC50: PG=−50): >−4.30 log10M
Log10TGI50 ([15]; MOLT-4 (Leukemia), TGI: PG=0): >−4.30 log10M
Log10GI50 ([16]; Ovarian Cancer, SK-OV-3): −4.89
Log10LC50 ([16]; SK-OV-3 (Ovarian Cancer), LC50: PG=−50): >−4.30 log10M
Log10TGI50 ([16]; SK-OV-3 (Ovarian Cancer), TGI: PG=0): >−4.30 log10M
Log10LC50 ([17]; EKVX (Non-Small Cell Lung Cancer), LC50: PG=−50): >−4.30 log10M
Log10TGI50 ([17]; EKVX (Non-Small Cell Lung Cancer), TGI: PG=0): −5.47 log10M
Log10GI50 ([17]; Non-Small Cell Lung Cancer, EKVX): −6.90
Log10GI50 ([18]; Colon Cancer, HT29): <−8.30
Log10LC50 ([18]; HT29 (Colon Cancer), LC50: PG=−50): >−4.30 log10M
Log10TGI50 ([18]; HT29 (Colon Cancer), TGI: PG=0): >−4.30 log10M
